One series relates to T. cruzi trypomastigotes. The series is described as follows: Flow cytometry of apoptosis-like markers in trypomastigotes. The format is cell-based, Trypanosoma cruzi. The following applies: 10 µM. As for the experimental part:
Apoptosis-like markers were analyzed by triple staining using 3,3′-dihexyloxacarbocyanine (DiOC6), propidium iodide (PI), and Hoechst from Thermo Fisher Scientific to determine the change of mitochondrial membrane potential (ΔΨm), cell membrane damage, and impairment of cell cycle, respectively. All readings were performed on a BD FACSCanto II 4/2/2 Sys IVD flow cytometer, and data obtained were analyzed using the FlowJo7.6.2 software. Differences between treatments were determined by a two-way ANOVA for multiple comparisons with 95% significance using GraphPad Prism 8. In all cases, 20 µL of parasites (5 × 10^6/mL) were stained per treatment with 300 µL of Hanks’ balanced saline solution (HBSS) and 10 µL of the staining mix containing […], 0.5 µL of 70 nM DiOC6, and 0.5 µL of 10 mg/mL Hoechst. Subsequently, parasites were incubated at room temperature for 15 min until reading.
The same markers mentioned above were used for T. cruzi trypomastigotes. A total of 1 × 10^6 trypomastigotes were centrifuged at 1800 RCF for 5 min to remove the culture medium. Parasites were cultured at […] in PBS or 10% FBS-supplemented DMEM with or without 10 µM UBMC-4, 10 µM chloroquine, and 10 µM UBMC-4/chloroquine for 2 h and 5 h. All experiments were compared to a culture setup using bz as control compound. Three biological replicates and three experimental replicates were applied to data collected at each time point for experimental conduction of every portion of the study. In all cases, ANOVA was applied for multiple comparisons after determining that data were normal.
(A flow cytometer gives signals particle by particle.)

Series [1] has as its system T. cruzi Tulahuen strain amastigotes. The series is described as follows: Trypanocidal activity in intracellular amastigotes (β-galactosidase, U937 macrophages). It counts as cell-based, Trypanosoma cruzi. As for the experimental part: To obtain intracellular amastigotes, 2.5 × 10^6 U937 differentiated macrophage cells were infected with T. cruzi epimastigotes (Tulahuen strain producing β-galactosidase, 24 h of growing) in a 5:1 parasite/cell ratio. To calculate EC50, 100 μL of UBMC-4 were added at four serial dilutions ([…]) to each well, and benznidazole (bz) was added at an initial concentration of 20 µg/mL and 6 serial 2-fold dilutions were used to determine its EC50 as a control of the effectiveness of the experiment, in addition to the control of the viability of the parasites (cells without drug treatment), from the blank of the culture medium (medium without cells), in duplicate. The cells were incubated for 72 h at 37 °C with 5% of CO2. All medium was removed and 100 µL of substrate for β-galactosidase diluted in PBS (chlorophenol β-d-galactopyranoside-CPRG network; Sigma-Aldrich, St Louis, MO, USA, at 100 mM and 0.1% Nonidet P-40) was added to each well and incubated at 37 °C for 3 h. The amount of chlorophenol red released was read at 570 nm in a spectrophotometer (Varioskan TM). Infected cells were used as negative control while infected cells treated with benznidazole were used as a positive control (trypanocidal activity) for the assay. RPMI-1640 medium was used as a negative control. Non-specific absorbance was corrected by subtracting the OD of the blank sample. Determinations were done in triplicate in at least two independent experiments.
The trypanocidal activity was determined based on the percentage of decrease of amastigotes determined using equation, as follows: % reduction of infection = 100 − (O.D. of treated infected cells)/(O.D. of non-treated infected cells) × 100. The half maximal effective concentration (EC50) was calculated by the linear regression model Probit using Graphpad Prism software.

Series [2] can be described thus: Cytotoxicity, MTT method, HepG2. The format is cell-based. To be noted: human, HepG2 cells, read-out: LC50 median lethal concentration HepG2. As for the experimental part:
(§1) Cytotoxicity of UBMC-4 was tested in HepG2, CaCo2, and huMDM cell lines according to the effect on cell growth determined by the MTT microenzimatic method, as described by others. Briefly, 2.0 × 10^4 U-937 and huMDM or 2.5 × 10^4 HepG2 and CaCo2 cells were dispensed in 200 µL into each well of a 96-well tissue culture plate containing the corresponding culture medium. Then, 100 µL/well of each compound at a concentration of […] were added and plates were incubated at 37 °C, 5% CO2. After 72 h of incubation, 20 μL of MTT (Sigma-Aldrich, St Louis, MO, USA) were added to each well and plates were incubated for 3 h at 37 °C, 5% CO2. […] The concentration of formazan was determined at 570 nm in a spectrophotometer (Varioskan Flash Multimode Reader, Thermo Scientific, Waltham, MA, USA). […] Cytotoxicity was determined according to the percentages of viability and cell growth inhibition obtained for each compound, bz, doxorubicin, or medium alone. Non-specific absorbance was corrected by subtracting the OD of the blank (culture medium). Percentages of mortality were calculated using equation, as follows: % mortality = 100 − [(O.D. of treated cells)/(O.D. of non-treated cells)] × 100. The half maximal effective concentration (EC50) was calculated by the linear regression model Probit using Graphpad Prism software.
For orientation: Formazan colour is commonly taken as a measure of viable cells.

A short description of series [3]: Cytotoxicity, MTT method, CaCo2. It counts as cell-based. To be noted: human, Caco-2, read-out: LC50 median lethal concentration CaCo2. As for the experimental part: as §1
Series [4] is described as follows: Cytotoxicity, MTT method, huMDM. The format is cell-based. The following applies: human, monocyte-derived macrophages (huMDM), read-out: LC50 median lethal concentration huMDM. The protocol: as §1
The subject of series [5] is intracellular forms of Tulahuen strain. Set-up: method as in Araujo-Lima et al. 2018 [44]. To be noted: ref Araujo-Lima et al. 2018 [44]; read-out: EC50 against intracellular forms of Tulahuen strain; cited from earlier work.

Some results are limits rather than exact numbers.

Take `CCN(CC)CCCC(C)Nc1ccnc2cc(Cl)ccc12` (centres unmarked) [chloroquine, reference compound]: the “mitochondrial membrane potential change” value with T. cruzi trypomastigotes (normal nutrition conditions) is “no alteration in the mitochondrial membrane potential”; in the series with T. cruzi trypomastigotes (nutritional stress conditions) it was “hyperpolarization continued just as in the untreated controls”.
For the compound `O=C(Cn1ccnc1[N+](=O)[O-])NCc1ccccc1` [Benznidazole, benznidazole, reference compound], the “selectivity index (SI) between huMDM and T. cruzi amastigotes” value in series [1] (LC50 huMDM / EC50 amastigotes) is > 655. The EC50 in series [1] (Trypanosoma cruzi, TULAHUEN, U-937, 72 h, read-out: EC50 half maximal effective concentration for T. cruzi amastigotes) was 1160 ± 30 nM; in series [5], 1800 ± 700 nM. Besides, the CC50 at 72 h in series [2], in series [3] and in series [4] was > 760000 nM in each case.

Values taken from paper PMC9229894, “In Silico, In Vitro, and Pharmacokinetic Studies of UBMC-4, a Potential Novel Compound for Treating against Trypanosoma cruzi” (Pathogens, 2022).
